These results are taken from PubChem BioAssay (NCI).

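Grown in 96-well plates, cells were treated for 48 hours with each compound at five concentrations. Insufficient inhibition: endpoint recorded as highest concentration tested. GI50: concentration for 50% inhibition of growth. At the TGI there is no net growth.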

Experiment in all cases: NCI-60 cell line screen, 48 h
The subject of experiment [1] is 786-0 renal.
Experiment [2] has as its system HL-60(TB) leukemia.
Experiment [3] deals with HOP-62 NSCLC.
Experiment [4] concerns MALME-3M melanoma.
Experiment [5] deals with NCI-H522 lung.
Experiment [6] has as its system OVCAR-3 ovarian.
Experiment [7] concerns SK-MEL-5 melanoma.
For experiment [8], the system named is SK-OV-3 ovarian.
For experiment [9], the system named is SR leukemia.
The subject of experiment [10] is UACC-62 melanoma.

As to `CCCCCc1ccc(S(=O)(=O)Nc2cc(-c3csc(NC(C)=O)n3)ccc2N2CCN(C)CC2)cc1`, the GI50 was 4.9 µM in experiment [1]; 1.37 µM in experiment [2]; 5.51 µM in experiment [3]; 4.05 µM in experiment [4]; 6.35 µM in [5]; 4.92 µM in [6]. Also, the GI50 in experiment [7] was 5.28 µM; in experiment [8] it was 5.95 µM; in [9], 0.929 µM; in experiment [10], 3.83 µM. Also, the TGI came out at 11.1 µM in [1]; 6.09 µM in experiment [2]; 12.2 µM in [3]; 9.11 µM in experiment [4]; 13 µM in [5]; 9.64 µM in experiment [6]. The TGI is 9.79 µM in [7], 11.5 µM in experiment [8], 2.77 µM in experiment [9] and 8.04 µM in experiment [10].

Turning to `CCN(CC)CCNC(=O)c1ccc(C)c(OCc2ccccc2)c1[N+](=O)[O-]`, the TGI in experiment [1] was > 74.6 µM; in experiment [2] it was 53.3 µM; in experiment [3], > 75.4 µM; in [4], 31.2 µM; in experiment [5], 76.5 µM; in experiment [6], > 75.8 µM. Besides, the TGI was 30.5 µM in experiment [7], > 75.9 µM in experiment [8], 69.9 µM in [9] and 39.6 µM in experiment [10].

As to `Nc1ccccc1SC1CC(=O)N(c2ccc(Cl)c(Cl)c2)C1=O` (centres undefined), the GI50 in experiment [1] is 27.3 µM; in [2], > 100 µM; in experiment [3], 21 µM; in experiment [4] it was 15.6 µM; in experiment [5], 19.4 µM; in experiment [6] it was 11.6 µM. In addition, the GI50 in experiment [7] is 21.9 µM; in experiment [8], 17.6 µM; in [9], 22.4 µM; in experiment [10], 14 µM. In addition, the TGI in experiment [1] is 90.3 µM; in experiment [2] it was > 100 µM; in [3], 66.7 µM; in experiment [4], > 100 µM; in experiment [5] it was > 100 µM; in experiment [6], 44 µM. In addition, the TGI in [7] is > 100 µM; in [8], 54 µM; in experiment [9] it was > 100 µM; in experiment [10] it was > 100 µM.

For `CCCCCCCCCCN1CCC(N2CCCCC2)CC1`, the GI50 in experiment [1] was 2.82 µM; in experiment [2], 1.1 µM; in [3] it was 2.38 µM; in experiment [4] it was 1.97 µM; in experiment [5], 1.93 µM; in experiment [6] it was 4.64 µM. Further, the GI50 was 1.54 µM in experiment [7], 2.77 µM in [8], 0.627 µM in [9] and 1.76 µM in experiment [10]. Besides, the TGI stood at 15.9 µM in [1]; 3.77 µM in experiment [2]; 7.64 µM in experiment [3]; 3.98 µM in [4]; 5.54 µM in [5]; 16.6 µM in [6]. In addition, the TGI in experiment [7] worked out at 2.87 µM; in experiment [8], 8.31 µM; in experiment [9], 2.98 µM; in experiment [10], 3.4 µM.

For the molecule `S=C1SC2=Nc3ccccc3CN2C2=NCCN12`, the GI50 in experiment [1] was > 100 µM; in [2], 89.2 µM; in [3] it was > 100 µM; in experiment [4], 49.6 µM; in [5], 27.7 µM; in experiment [6], 80.8 µM. For the same molecule, the GI50 is 14.8 µM in [7], > 100 µM in experiment [8], 18.7 µM in experiment [9] and 72.5 µM in experiment [10]. Further, the TGI in experiment [1], in experiment [2], in experiment [3], in [4], in [5] and in experiment [6] was > 100 µM each time. Also, the TGI in experiment [7] was 55.5 µM; in experiment [8], > 100 µM; in experiment [9], 55.7 µM; in experiment [10] it was > 100 µM.

`C/C(=N\NC(=S)N1CC2CCC(CC2)C1)c1ccccn1`: the GI50 is 0.152 µM in experiment [1]; 0.0482 µM in [2]; 0.142 µM in experiment [3]; 0.121 µM in [4]; 0.195 µM in experiment [5]; < 0.0141 µM in [6]. The GI50 in experiment [7] is 0.133 µM; in experiment [8], 0.0465 µM; in experiment [9], 0.0424 µM; in experiment [10], 0.309 µM. The TGI in experiment [1] was determined as 1.46 µM; in experiment [2], 1.21 µM; in experiment [3], 1.69 µM; in experiment [4], 1.49 µM; in experiment [5] it was 1.27 µM; in [6], 0.29 µM. For the same molecule, the TGI worked out at 0.852 µM in [7], 1.01 µM in experiment [8], 2.22 µM in experiment [9] and 3.3 µM in experiment [10].

`O=C(NCc1ccc(S(=O)(=O)c2cc(F)cc(F)c2)cc1)c1ccc2nccn2c1`: the GI50 was 30.7 µM in experiment [1]; > 40.2 µM in [2]; 23 µM in experiment [3]; > 41.6 µM in experiment [4]; < 0.01 µM in experiment [5]; 1.32 µM in experiment [6]. The GI50 was 2.22 µM in experiment [7], 17.1 µM in [8] and > 51 µM in experiment [10]. Also, the TGI was > 100 µM in experiment [1]; > 100 µM in experiment [2]; 74 µM in experiment [3]; > 65 µM in experiment [4]; 43 µM in experiment [5]; > 100 µM in experiment [6]. Further, the TGI in experiment [7] is > 100 µM; in experiment [8], 60.6 µM; in experiment [9], > 100 µM; in experiment [10] it was > 100 µM.
